ChEMBL document CHEMBL1154336, “The discovery and optimisation of benzazepine sulfonamide and sulfones as potent agonists of the motilin receptor” (Bioorg Med Chem Lett, 2009)
Converted amounts (≈) assume the structure as drawn.

How the values were obtained:
[1] = biological target: T1, Growth hormone secretagogue receptor type 1 (Homo sapiens, UniProt Q92847); test: Agonist activity at human ghrelin receptor; assay type: functional
Liver microsomes [2] = test: Intrinsic clearance in human liver microsomes after 30 mins; assay type: ADME, Microsome; settings: 0.5 h
Cytochrome P450 2D6 = Cytochrome P450 2D6 (Homo sapiens, UniProt P10635); test: Inhibition of human recombinant CYP2D6; assay type: ADME
Cytochrome P450 2D6, sequence (P10635 whole entry): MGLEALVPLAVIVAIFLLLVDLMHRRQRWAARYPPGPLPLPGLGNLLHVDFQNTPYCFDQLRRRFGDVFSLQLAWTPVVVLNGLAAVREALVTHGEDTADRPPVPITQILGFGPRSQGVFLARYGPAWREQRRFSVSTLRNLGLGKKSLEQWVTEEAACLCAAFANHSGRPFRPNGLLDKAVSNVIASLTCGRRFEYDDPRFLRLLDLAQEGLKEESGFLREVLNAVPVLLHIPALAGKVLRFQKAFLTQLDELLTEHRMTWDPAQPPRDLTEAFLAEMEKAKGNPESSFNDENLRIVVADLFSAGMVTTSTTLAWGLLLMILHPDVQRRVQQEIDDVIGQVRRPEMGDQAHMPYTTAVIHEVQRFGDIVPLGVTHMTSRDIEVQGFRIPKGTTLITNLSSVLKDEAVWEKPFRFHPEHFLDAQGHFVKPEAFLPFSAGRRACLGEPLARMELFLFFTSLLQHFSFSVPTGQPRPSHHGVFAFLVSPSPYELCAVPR

Motilin receptor = Motilin receptor (Homo sapiens, UniProt O43193); test: Agonist activity at human recombinant motilin receptor expressed in CHO cells by FLIPR assay; assay type: functional, cell-based
Motilin receptor, sequence (O43193 whole entry): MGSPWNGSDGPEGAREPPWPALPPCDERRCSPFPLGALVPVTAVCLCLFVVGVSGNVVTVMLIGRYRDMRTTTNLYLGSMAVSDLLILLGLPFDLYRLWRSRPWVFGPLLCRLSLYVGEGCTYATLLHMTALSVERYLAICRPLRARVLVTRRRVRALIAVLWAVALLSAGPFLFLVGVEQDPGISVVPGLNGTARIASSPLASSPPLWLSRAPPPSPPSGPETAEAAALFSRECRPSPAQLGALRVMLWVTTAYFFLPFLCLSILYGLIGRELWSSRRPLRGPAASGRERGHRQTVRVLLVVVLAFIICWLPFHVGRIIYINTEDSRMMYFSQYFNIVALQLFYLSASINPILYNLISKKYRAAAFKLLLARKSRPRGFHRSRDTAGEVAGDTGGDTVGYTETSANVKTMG

Liver microsomes [3] = test: Intrinsic clearance in rat liver microsomes after 30 mins; assay type: ADME, Microsome; settings: 0.5 h
Stomach [4] = test: Increase in electric field stimulated contractile response in New Zealand White rabbit gastric antrum at 1 uM after 60 mins; assay type: functional; settings: Oryctolagus cuniculus, 1 h
D(2) dopamine receptor = D(2) dopamine receptor (Homo sapiens, UniProt P14416); test: Agonist activity at dopamine D2 receptor; assay type: functional
D(2) dopamine receptor, sequence (P14416 whole entry): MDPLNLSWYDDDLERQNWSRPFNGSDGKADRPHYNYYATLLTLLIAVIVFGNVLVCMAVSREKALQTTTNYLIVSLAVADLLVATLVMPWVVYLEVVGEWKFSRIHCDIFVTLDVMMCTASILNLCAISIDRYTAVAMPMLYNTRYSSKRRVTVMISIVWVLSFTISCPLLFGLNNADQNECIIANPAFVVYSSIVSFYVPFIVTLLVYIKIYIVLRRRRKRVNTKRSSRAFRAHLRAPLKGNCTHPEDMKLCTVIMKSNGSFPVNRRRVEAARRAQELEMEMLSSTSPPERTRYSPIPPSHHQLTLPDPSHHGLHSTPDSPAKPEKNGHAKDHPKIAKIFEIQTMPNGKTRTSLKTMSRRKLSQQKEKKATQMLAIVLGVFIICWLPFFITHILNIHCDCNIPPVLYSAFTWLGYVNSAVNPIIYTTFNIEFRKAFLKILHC

D(3) dopamine receptor = D(3) dopamine receptor (Homo sapiens, UniProt P35462); test: Agonist activity at dopamine D3 receptor; assay type: functional
D(3) dopamine receptor, sequence (P35462 whole entry): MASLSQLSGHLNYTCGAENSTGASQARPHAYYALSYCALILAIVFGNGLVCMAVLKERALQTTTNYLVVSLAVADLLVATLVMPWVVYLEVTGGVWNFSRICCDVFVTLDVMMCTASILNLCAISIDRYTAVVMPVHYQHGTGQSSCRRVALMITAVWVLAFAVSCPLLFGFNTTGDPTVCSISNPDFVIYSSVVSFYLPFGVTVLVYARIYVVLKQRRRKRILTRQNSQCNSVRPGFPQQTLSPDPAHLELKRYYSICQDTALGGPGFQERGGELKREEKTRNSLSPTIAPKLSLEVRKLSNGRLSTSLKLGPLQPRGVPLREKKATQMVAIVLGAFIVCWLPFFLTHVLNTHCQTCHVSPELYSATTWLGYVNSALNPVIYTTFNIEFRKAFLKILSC

[5] = biological target: 5-hydroxytryptamine receptor 6 (Homo sapiens, UniProt P50406); test: Agonist activity at 5HT6 receptor; assay type: functional
5-hydroxytryptamine receptor 6, sequence (P50406 whole entry): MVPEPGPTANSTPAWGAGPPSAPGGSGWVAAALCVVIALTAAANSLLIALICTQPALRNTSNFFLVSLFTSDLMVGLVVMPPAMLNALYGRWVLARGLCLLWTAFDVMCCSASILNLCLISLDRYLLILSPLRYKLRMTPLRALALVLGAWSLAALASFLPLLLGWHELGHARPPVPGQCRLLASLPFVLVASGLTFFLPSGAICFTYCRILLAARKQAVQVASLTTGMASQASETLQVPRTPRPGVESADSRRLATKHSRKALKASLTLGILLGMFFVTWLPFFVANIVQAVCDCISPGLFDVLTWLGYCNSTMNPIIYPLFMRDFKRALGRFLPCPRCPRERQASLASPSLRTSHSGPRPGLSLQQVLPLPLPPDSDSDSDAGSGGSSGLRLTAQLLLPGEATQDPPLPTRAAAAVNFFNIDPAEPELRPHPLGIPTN

Cytochrome P450 3A4 [6] = biological target: T2, Cytochrome P450 3A4 (Homo sapiens, UniProt P08684); test: Inhibition of human recombinant CYP3A4 using 7-{3-(4-phenylpiperazin-1-ylmethyl)benzyl}resorufin as substrate; assay type: ADME
T2 sequence (P08684 whole entry): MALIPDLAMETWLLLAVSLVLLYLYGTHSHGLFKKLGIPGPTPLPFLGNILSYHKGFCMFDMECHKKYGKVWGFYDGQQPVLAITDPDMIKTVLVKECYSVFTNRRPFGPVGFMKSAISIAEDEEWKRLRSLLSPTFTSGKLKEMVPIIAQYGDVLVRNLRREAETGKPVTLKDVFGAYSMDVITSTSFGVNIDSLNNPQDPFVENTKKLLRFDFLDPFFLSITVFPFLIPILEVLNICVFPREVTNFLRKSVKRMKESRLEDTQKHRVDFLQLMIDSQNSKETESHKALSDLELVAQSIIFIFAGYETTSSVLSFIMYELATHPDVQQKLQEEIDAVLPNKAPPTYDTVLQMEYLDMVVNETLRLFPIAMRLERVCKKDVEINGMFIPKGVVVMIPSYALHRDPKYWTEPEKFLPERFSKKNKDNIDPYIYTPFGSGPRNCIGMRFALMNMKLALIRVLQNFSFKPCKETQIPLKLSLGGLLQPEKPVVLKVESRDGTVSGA

Cytochrome P450 3A4 [7] = biological target: T2, Cytochrome P450 3A4; test: Inhibition of human recombinant CYP3A4 using diethoxyfluorescein as substrate; assay type: ADME
[8] = biological target: T1, Growth hormone secretagogue receptor type 1; test: Intrinsic activity at human ghrelin receptor relative to ghrelin
[9] = biological target: Voltage-gated inwardly rectifying potassium channel KCNH2 (Homo sapiens, UniProt Q12809); test: Inhibition of human ERG
Voltage-gated inwardly rectifying potassium channel KCNH2, sequence (Q12809 whole entry): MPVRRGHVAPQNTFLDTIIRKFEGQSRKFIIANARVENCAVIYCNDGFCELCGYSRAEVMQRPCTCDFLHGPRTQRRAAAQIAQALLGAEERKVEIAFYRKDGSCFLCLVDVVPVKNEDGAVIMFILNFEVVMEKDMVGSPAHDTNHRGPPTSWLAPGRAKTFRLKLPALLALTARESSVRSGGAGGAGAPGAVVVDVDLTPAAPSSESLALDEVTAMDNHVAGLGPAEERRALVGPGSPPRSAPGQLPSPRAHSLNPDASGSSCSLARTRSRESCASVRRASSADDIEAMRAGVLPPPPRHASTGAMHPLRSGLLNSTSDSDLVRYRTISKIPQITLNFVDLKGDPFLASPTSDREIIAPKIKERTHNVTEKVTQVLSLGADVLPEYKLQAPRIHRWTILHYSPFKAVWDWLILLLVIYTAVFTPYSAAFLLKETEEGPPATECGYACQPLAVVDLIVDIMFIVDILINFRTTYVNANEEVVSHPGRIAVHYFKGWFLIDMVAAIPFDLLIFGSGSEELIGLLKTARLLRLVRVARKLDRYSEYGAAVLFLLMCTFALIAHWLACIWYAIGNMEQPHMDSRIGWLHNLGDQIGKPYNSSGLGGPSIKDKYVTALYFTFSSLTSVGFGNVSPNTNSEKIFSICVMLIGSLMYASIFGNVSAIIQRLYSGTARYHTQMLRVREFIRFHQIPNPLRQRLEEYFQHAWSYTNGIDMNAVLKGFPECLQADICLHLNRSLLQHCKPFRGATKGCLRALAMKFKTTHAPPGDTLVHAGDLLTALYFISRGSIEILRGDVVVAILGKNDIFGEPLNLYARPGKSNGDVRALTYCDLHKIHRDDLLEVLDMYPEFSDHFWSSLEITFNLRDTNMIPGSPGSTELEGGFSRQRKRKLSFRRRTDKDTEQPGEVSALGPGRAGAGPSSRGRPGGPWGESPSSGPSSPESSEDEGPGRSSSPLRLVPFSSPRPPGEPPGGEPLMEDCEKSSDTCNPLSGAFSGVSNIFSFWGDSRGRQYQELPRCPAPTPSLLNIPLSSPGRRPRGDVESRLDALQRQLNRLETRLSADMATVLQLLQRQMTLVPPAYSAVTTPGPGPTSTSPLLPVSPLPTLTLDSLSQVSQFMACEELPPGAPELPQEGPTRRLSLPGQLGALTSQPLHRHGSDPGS

[10] = Aqueous solubility at pH 7.4; assay type: physicochemical
Cytochrome P450 2C9 = Cytochrome P450 2C9 (Homo sapiens, UniProt P11712); test: Inhibition of human recombinant CYP2C9; assay type: ADME
Cytochrome P450 2C9, sequence (P11712 whole entry): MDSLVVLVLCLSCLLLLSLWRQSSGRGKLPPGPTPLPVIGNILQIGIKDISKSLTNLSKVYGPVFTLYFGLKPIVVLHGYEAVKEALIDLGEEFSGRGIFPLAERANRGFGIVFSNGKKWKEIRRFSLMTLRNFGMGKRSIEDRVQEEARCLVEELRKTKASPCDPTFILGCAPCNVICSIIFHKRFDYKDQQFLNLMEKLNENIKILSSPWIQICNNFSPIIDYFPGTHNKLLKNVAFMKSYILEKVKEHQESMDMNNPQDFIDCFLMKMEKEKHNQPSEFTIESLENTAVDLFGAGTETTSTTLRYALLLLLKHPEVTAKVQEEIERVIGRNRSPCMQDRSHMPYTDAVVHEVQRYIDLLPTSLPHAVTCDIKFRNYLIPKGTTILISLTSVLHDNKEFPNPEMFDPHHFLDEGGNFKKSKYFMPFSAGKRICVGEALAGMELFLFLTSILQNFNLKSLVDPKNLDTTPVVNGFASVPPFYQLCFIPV

Cytochrome P450 1A2 = biological target: T3, Cytochrome P450 1A2 (Homo sapiens, UniProt P05177); test: Inhibition of human recombinant CYP1A2; assay type: ADME
T3 sequence (P05177 whole entry): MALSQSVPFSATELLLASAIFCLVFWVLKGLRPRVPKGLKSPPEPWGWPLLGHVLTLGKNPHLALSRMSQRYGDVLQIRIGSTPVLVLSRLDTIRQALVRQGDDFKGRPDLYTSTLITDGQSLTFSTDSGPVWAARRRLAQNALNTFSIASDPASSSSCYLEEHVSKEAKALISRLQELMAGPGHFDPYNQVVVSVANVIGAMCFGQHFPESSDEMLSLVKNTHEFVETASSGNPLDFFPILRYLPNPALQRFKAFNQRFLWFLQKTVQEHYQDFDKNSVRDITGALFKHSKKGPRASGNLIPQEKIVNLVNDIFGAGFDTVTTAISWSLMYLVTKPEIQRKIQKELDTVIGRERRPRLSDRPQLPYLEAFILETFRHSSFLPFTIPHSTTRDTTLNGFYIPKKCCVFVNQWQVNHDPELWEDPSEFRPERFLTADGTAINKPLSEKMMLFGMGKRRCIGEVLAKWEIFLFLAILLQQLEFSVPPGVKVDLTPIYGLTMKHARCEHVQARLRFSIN

Cytochrome P450 2C19 = Cytochrome P450 2C19 (Homo sapiens, UniProt P33261); test: Inhibition of human recombinant CYP2C19; assay type: ADME
Stomach [11] = test: Increase in electric field stimulated contractile response in New Zealand White rabbit gastric antrum at 3 uM after 60 mins; assay type: functional; settings: Oryctolagus cuniculus, 1 h
[12] = Cmax in mouse at 10 mg/kg, po; assay type: ADME, organism-based; design: dose 10 mg/kg, route oral; settings: in vivo
[13] = Tmax in mouse at 10 mg/kg, po; assay type: ADME, organism-based; design: dose 10 mg/kg, route oral; settings: in vivo
[14] = Half life in mouse at 10 mg/kg, po; assay type: ADME, organism-based; design: dose 10 mg/kg, route oral; settings: in vivo

T1 sequence (Q92847 whole entry): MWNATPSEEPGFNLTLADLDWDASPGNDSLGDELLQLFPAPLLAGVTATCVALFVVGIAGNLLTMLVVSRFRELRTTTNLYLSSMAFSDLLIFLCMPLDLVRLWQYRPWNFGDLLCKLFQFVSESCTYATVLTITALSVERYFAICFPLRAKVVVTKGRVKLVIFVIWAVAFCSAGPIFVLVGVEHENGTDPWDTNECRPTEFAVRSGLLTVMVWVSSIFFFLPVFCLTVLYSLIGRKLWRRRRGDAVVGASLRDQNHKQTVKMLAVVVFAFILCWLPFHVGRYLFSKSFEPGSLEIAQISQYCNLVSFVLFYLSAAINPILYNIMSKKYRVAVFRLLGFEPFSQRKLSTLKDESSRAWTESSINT

Structure (SMILES)	EC50 [1] [nM]	IC50 (Cytochrome P450 2D6) [nM]	EC50 (Motilin receptor) [nM]	also measured
O=S(=O)(Cc1ccc2c(c1)CCNCC2)c1ccc(-c2ccc(Cl)cc2)cc1	> 10000	< 100	20	CL (Liver microsomes [2]): < 1 mL/min/g; CL (Liver microsomes [3]): < 0.5 mL/min/g
O=S(=O)(Cc1ccc2c(c1)CCNCC2)c1ccc2ccccc2c1	> 10000		1260	
CCCCc1ccc(S(=O)(=O)Nc2ccc3c(c2)CCN(C2CCCC2)CC3)cc1	> 1000		200	
O=S(=O)(Cc1ccc2c(c1)CCNCC2)c1ccc(N2CCOCC2)nc1	> 1000	16000	501	CL (Liver microsomes [2]): < 0.5 mL/min/g; CL (Liver microsomes [3]): < 1 mL/min/g
CCCCc1ccc(S(=O)(=O)Nc2ccc3c(c2)CCN(Cc2cccs2)CC3)cc1	> 1000		2510	
CCCCc1ccc(S(=O)(=O)Nc2ccc3c(c2)CCN(C2CCN(C)CC2)CC3)cc1			> 12600	
O=S(=O)(Cc1ccc2c(c1)CCNCC2)c1ccccc1	> 10000		> 12600	
O=S(=O)(Cc1ccc2c(c1)CCNCC2)c1ccc(-c2ccc(F)cc2)nc1	> 1000	600	5.01	CL (Liver microsomes [2]): < 1 mL/min/g; Emax at 1 µM (Stomach [4]): 54%; CL (Liver microsomes [3]): < 0.5 mL/min/g
CC(C)Oc1ccc(S(=O)(=O)Cc2ccc3c(c2)CCNCC3)cn1	> 1000	1600	158	
O=S(=O)(Nc1ccc2c(c1)CCN(Cc1cc[nH]n1)CC2)c1ccc(-c2ccccc2)cc1	1580	< 100	10	Ki (D(2) dopamine receptor): 631 nM; Ki (D(3) dopamine receptor): 31.6 nM; Ki [5]: 126 nM; IC50 (Cytochrome P450 3A4 [6]): < 100 nM; IC50 (Cytochrome P450 3A4 [7]): < 100 nM; Intrinsic activity [8]: 0.7
CCCCc1ccc(S(=O)(=O)Nc2ccc3c(c2)CCN(Cc2ccccc2)CC3)cc1			> 3160	
CCCCc1ccc(S(=O)(=O)Nc2ccc3c(c2)CCN(Cc2cnc(C)[nH]2)CC3)cc1	20		63.1	Intrinsic activity [8]: 0.5
CC(C)S(=O)(=O)Nc1ccc2c(c1)CCN(Cc1ccn[nH]1)CC2		16000	> 12600	
CCCCc1ccc(S(=O)(=O)Nc2ccc3c(c2)CCN(CC2CCOC2)CC3)cc1 (configuration not stated)	> 1000		2000	
CCCCc1ccc(S(=O)(=O)Cc2ccc3c(c2)CCNCC3)cc1			126	
CCCCc1ccc(S(=O)(=O)Nc2ccc3c(c2)CCN(Cc2ccn[nH]2)CC3)cc1	79.4	< 100	2.51	IC50 [9]: 2510 nM; solubility [10]: 10000 µg/mL (≈ 22.8 mM); Ki (D(2) dopamine receptor): 100 nM; Ki (D(3) dopamine receptor): 3.98 nM; IC50 (Cytochrome P450 2C9): 600 nM; IC50 (Cytochrome P450 1A2): 29000 nM; IC50 (Cytochrome P450 3A4 [6]): 1900 nM; IC50 (Cytochrome P450 3A4 [7]): 800 nM; IC50 (Cytochrome P450 2C19): 8800 nM
Cc1ccc(S(=O)(=O)Nc2ccc3c(c2)CCN(Cc2cc[nH]n2)CC3)cc1Cl				Intrinsic activity [8]: 0.7
O=C(Nc1ccc2c(c1)CCNCC2)c1ccc(N2CCOCC2)nc1			> 12600	
O=S(=O)(Nc1ccc(N2CCOCC2)nc1)c1ccc2c(c1)CCNCC2			2510	
O=C(Nc1ccc(N2CCOCC2)nc1)c1ccc2c(c1)CCNCC2			> 12600	
CN1CCOc2cc(S(=O)(=O)Nc3ccc4c(c3)CCN(Cc3cc[nH]n3)CC4)ccc21	> 10000		31.6	Ki (D(2) dopamine receptor): > 1000 nM; Ki (D(3) dopamine receptor): 631 nM; Ki [5]: 15.8 nM
CN(Cc1ccc2c(c1)CCNCC2)C(=O)c1ccc(N2CCOCC2)nc1			> 12600	
O=S(=O)(Nc1ccc2c(c1)CCN(Cc1cc[nH]n1)CC2)c1ccc(-c2ccccn2)s1	> 10000	200	7.94	Ki (D(2) dopamine receptor): > 794 nM; Emax at 3 µM (Stomach [11]): 190%; Ki (D(3) dopamine receptor): 200 nM; IC50 (Cytochrome P450 2C9): 400 nM; Ki [5]: 158 nM
O=S(=O)(Cc1ccc2c(c1)CCNCC2)c1ccc(-c2ccc(Cl)cc2)nc1	> 1000	< 100	7.94	CL (Liver microsomes [2]): < 1 mL/min/g; CL (Liver microsomes [3]): < 1 mL/min/g
CCCCc1ccc(S(=O)(=O)Nc2ccc3c(c2)CCN(Cc2cnc[nH]2)CC3)cc1	3.98		7.94	Intrinsic activity [8]: 0.4
O=S(=O)(Nc1ccc2c(c1)CCNCC2)c1ccc(N2CCOCC2)nc1			1580	

Structure (SMILES)	EC50 [1] [nM]	IC50 (Cytochrome P450 2D6) [nM]	EC50 (Motilin receptor) [nM]	also measured
CCCCc1ccc(S(=O)(=O)Nc2ccc3c(c2)CCN(Cc2ccc(NC(C)=O)s2)CC3)cc1	> 1000		50.1	
N#Cc1ccc(S(=O)(=O)Nc2ccc3c(c2)CCN(Cc2cc[nH]n2)CC3)cc1		7900	7940	IC50 (Cytochrome P450 2C9): 2500 nM
O=S(=O)(Cc1ccc2c(c1)CCNCC2)c1ccc(Nc2ccc(F)cc2)nc1	> 1000	300	20	CL (Liver microsomes [2]): < 1 mL/min/g; CL (Liver microsomes [3]): < 0.5 mL/min/g
O=S(=O)(Cc1ccc2c(c1)CCNCC2)c1ccc(Oc2ccc(F)cc2)nc1	> 1000	1700	501	
CCCCc1ccc(S(=O)(=O)Nc2ccc3c(c2)CCNCC3)cc1			1580	
O=S(=O)(Nc1ccc2c(c1)CCN(Cc1cc[nH]n1)CC2)c1ccc(N2CCOCC2)nc1	> 1000	< 1000	6.31	IC50 [9]: > 15800 nM; solubility [10]: 371 µg/mL (≈ 0.792 mM); Ki (D(2) dopamine receptor): > 3160 nM; Ki (D(3) dopamine receptor): 631 nM; CL (Liver microsomes [2]): 6.6 mL/min/g; IC50 (Cytochrome P450 1A2): > 8000 nM; Ki [5]: 631 nM; IC50 (Cytochrome P450 3A4 [6]): > 8000 nM; IC50 (Cytochrome P450 3A4 [7]): > 8000 nM; Cmax [12]: 273 ng/mL; Tmax [13]: 2 h; CL (Liver microsomes [3]): 3.8 mL/min/g; IC50 (Cytochrome P450 2C19): > 8000 nM; half-life [14]: 1.5 h
O=S(=O)(Cc1ccc2c(c1)CCNCC2)c1ccc(-c2ccc(F)cc2)cc1	> 10000	200	12.6	Emax at 3 µM (Stomach [11]): 166%; CL (Liver microsomes [2]): < 1 mL/min/g; CL (Liver microsomes [3]): < 1 mL/min/g
O=S(=O)(Nc1ccc2c(c1)CCN(Cc1cc[nH]n1)CC2)c1ccc(Cl)cc1	> 10000		794	
CC(C)COc1ccc(S(=O)(=O)Cc2ccc3c(c2)CCNCC3)cn1	> 1000		39.8	
CC(C)Oc1ccc(S(=O)(=O)Nc2ccc3c(c2)CCN(Cc2cc[nH]n2)CC3)cc1	158	1300	3.98	Ki (D(2) dopamine receptor): 631 nM; Ki (D(3) dopamine receptor): 20 nM; Ki [5]: 200 nM; Intrinsic activity [8]: 0.6
CCCCc1ccc(S(=O)(=O)Nc2ccc3c(c2)CCN(Cc2cc[nH]n2)CC3)cc1				Emax at 1 µM (Stomach [4]): 47%; Intrinsic activity [8]: 0.7
CCCCc1ccc(S(=O)(=O)Nc2ccc3c(c2)CCN(C2CCN(C(C)=O)CC2)CC3)cc1			> 2510	
CCCCc1ccc(S(=O)(=O)Nc2ccc3c(c2)CCN(Cc2cncn2C)CC3)cc1			3160	
CC(C)(C)c1ccc(S(=O)(=O)Cc2ccc3c(c2)CCNCC3)cc1	> 10000		3160	
N#Cc1ccc(-c2ccc(S(=O)(=O)Cc3ccc4c(c3)CCNCC4)cn2)cc1	> 1000		158	
Cc1ccc(S(=O)(=O)Nc2ccc3c(c2)CCN(Cc2ccn[nH]2)CC3)cc1Cl	79.4		39.8	Ki (D(2) dopamine receptor): 398 nM; Ki (D(3) dopamine receptor): 100 nM; Ki [5]: 6.31 nM
CCCCc1ccc(S(=O)(=O)N(C)c2ccc3c(c2)CCNCC3)cc1			2510	
CCCCc1ccc(S(=O)(=O)Nc2ccc3c(c2)CCN(Cc2cccc(NC(C)=O)c2)CC3)cc1	> 10000		501	
O=S(=O)(Cc1ccc2c(c1)CCNCC2)c1ccc(N2CCCCC2)nc1	> 1000	1100	63.1	
CC1(C)CCc2cc(S(=O)(=O)Nc3ccc4c(c3)CCN(Cc3cc[nH]n3)CC4)ccc2O1	631	500	5.01	
CCCCc1ccc(S(=O)(=O)Nc2ccc3c(c2)CCN(Cc2[nH]cnc2C)CC3)cc1	3.98		3.16	Intrinsic activity [8]: 0.6
O=S(=O)(Cc1ccc2c(c1)CCNCC2)c1ccc(-c2ccc(F)c(F)c2)cc1	> 1000	100	25.1	CL (Liver microsomes [2]): 1 mL/min/g; CL (Liver microsomes [3]): 1.1 mL/min/g
O=C(Nc1ccc(F)cc1)c1ccc(S(=O)(=O)Cc2ccc3c(c2)CCNCC3)cn1			2000	
O=S(=O)(Cc1ccccc1)Nc1ccc2c(c1)CCN(Cc1ccn[nH]1)CC2	> 1000		2510	
CN(C(=O)c1ccc(N2CCOCC2)nc1)c1ccc2c(c1)CCNCC2			> 12600	
